Consider 7 compounds from the NIST ThermoML archive (doi:10.1016/j.jct.2017.03.019).

In general, mass density refers to the mass of a sample divided by its volume. Usually refractive index stands for a measure of how strongly the sample bends light.

For series [1] the following is noted: 298.2 K; 101.33 kPa; Liquid; Vibrating tube method.
Series [2] can be described thus: refractive index (Na D-line) (dimensionless). The settings on record: 298.2 K; 101.33 kPa; Liquid; Standard Abbe refractometry.
Series [3] is described as follows: wn = mass fraction of the nth substance listed. As to conditions: 298.2 K, 100 kPa, Liquid, Vibrating tube method.
A short description of series [4]: refractive index (Na D-line) (dimensionless); wn = mass fraction of the nth substance listed. As to conditions: 298.2 K, 100 kPa, Liquid, Standard Abbe refractometry.

Structures are written as SMILES. Numbers after ± are expanded uncertainties.

In the case of `CCCCO` [butan-1-ol], in series [1], the mass density worked out at 805.81 ± 1.9 kg/m3. In addition, the refractive index in series [2] was determined as 1.3973 ± 0.0032.

Take `CCCC(C)O` (stereo not given) [pentan-2-ol]: the mass density in series [1] is recorded as 805.37 ± 1.9 kg/m3. Also, the refractive index in series [2] was found to be 1.4044 ± 0.0032.

As for `CCCC(C)O` (stereo not given) [pentan-2-ol] + O, the mass density is listed as 827.45 ± 3.5 kg/m3 in series [3] (w2 = 0.1177) and 989.77 ± 3.8 kg/m3 in series [3] (w2 = 0.9477). In addition, the figures for the refractive index in series [4] (w2 = 0.1177) and in series [4] (w2 = 0.9477) were 1.3992 ± 0.0036 and 1.3377 ± 0.0036, respectively.

Take `CCC(C)O` (stereo not given) [butan-2-ol] + O: the mass density in series [3] (w2 = 0.3523) is 874.34 ± 3.6 kg/m3; in series [3] (w2 = 0.8131) it was 968.42 ± 3.7 kg/m3. Also, the refractive index in series [4] (w2 = 0.3523) is recorded as 1.3812 ± 0.0036; in series [4] (w2 = 0.8131) it was 1.3513 ± 0.0036.

On to `CCC(C)O` (stereo not given) [butan-2-ol], for which the mass density in series [1] was 802.49 ± 0.95 kg/m3. The refractive index in series [2] is reported as 1.3952 ± 0.0016.

On to `CCCCO` [butan-1-ol] + O, for which the mass density in series [3] (w2 = 0.2058) was determined as 844.74 ± 3.5 kg/m3; in series [3] (w2 = 0.9265) it was 986.16 ± 3.8 kg/m3. The refractive index in series [4] (w2 = 0.2058) was found to be 1.3885 ± 0.0036; in series [4] (w2 = 0.9265) it was 1.3402 ± 0.0036.

Regarding `O` [water], the mass density in series [1] was found to be 997.17 ± 1.9 kg/m3. Also, the refractive index in series [2] was 1.3325 ± 0.0032.
